What all share (assay): cells
One experiment relates to HT-1197 cells. Particulars: Homo sapiens, HT1197, 72 h, read-out: IC50 (microM) (HT1197). How it is done: (§1) To evaluate the expression status of PBK in several cell lines, western blot analysis was performed using crude cell lysate collected from those cells.
(§2) 100 micro-L of cell suspension was seeded onto 96-well microtiter plate (ViewPlate-96FTC, PerkinElmer). […] Cellular growth was determined using Cell Counting Kit-8 (DOJINDO) at 72 hours after the exposure of the candidate inhibitors. […] Accurate IC50 values were calculated as described previously.

The subject of another experiment is T47D cells. The settings on record: Homo sapiens, 72 h, read-out: IC50 (microM) (T47D). Here is the method:
as §1, §2

A further experiment concerns BT-549 cells. Particulars: Homo sapiens, BT-549, 72 h, read-out: IC50 (microM) (BT549). Here is the method:
as §1, §2

As a reminder, the IC50 is the midpoint of a concentration-inhibition curve. In the case of `O=C(N[C@H]1CCCNC1)c1ccc(O)c2[nH]c(-c3cccs3)nc12` [Example 38, (S)-7-Hydroxy-N-(piperidin-3-yl)-2-(thiophen-2-yl)-1H-benzo[d]imidazole-4-carboxamide], the figures for the 50% inhibitory concentration (IC50) in the experiment on HT-1197 cells, in the experiment on T47D cells and in the experiment on BT-549 cells were 33 µM, 0.36 µM and 0.46 µM, respectively.
On the same counts, the results for `O=C(NC[C@@H]1CCCNC1)c1ccc(O)c2[nH]c(Cc3cccs3)nc12` [Example 58, (R)-7-hydroxy-N-(piperidin-3-ylmethyl)-2-(thiophen-2-ylmethyl)-1H-benzo[d]imidazole-4-carboxamide] are 21 µM, 24 µM and 13 µM.
`O=C(N[C@@H]1CCCNC1)c1ccc(O)c2[nH]c(-c3cccs3)nc12` [Example 37, (R)-7-Hydroxy-N-(piperidin-3-yl)-2-(thiophen-2-yl)-1H-benzo[d]imidazole-4-carboxamide]: the figures for the half-inhibitory concentration (IC50) in the experiment with HT-1197 cells, in the experiment on T47D cells and in the experiment on BT-549 cells were greater than 100 µM, 11 µM and 20 µM, respectively.
Taken in the same sequence, the figures for `O=C(NC1CCCNC1)c1ccc(O)c2[nH]c(-c3cccs3)nc12` (stereo not drawn) [Example 35, 7-Hydroxy-N-(piperidin-3-yl)-2-(thiophen-2-yl)-1H-benzo[d]imidazole-4-carboxamide] were 49 µM, 0.81 µM and 0.77 µM.
On the same counts, the results for `NC12CC3CC(C1)CC(NC(=O)c1ccc(O)c4[nH]c(-c5cccs5)nc14)(C3)C2` [Example 54, 2-(Thiophene-2-yl)-7-hydroxy-N-(adamantate-3-ylamino)-1H-benzo[d]imidazole-4-carboxamide] are 10 µM, 1.6 µM and 3.3 µM.
Taken in the same sequence, the figures for `O=C(N[C@H]1CCCNC1)c1ccc(O)c2[nH]c(-c3ccc(N4CCNCC4)s3)nc12` [Example 57, (S)-7-hydroxy-2-(5-(piperazin-1-yl)thiophen-2-yl)-N-(piperidin-3-yl)-1H-benzo[d]imidazole-4-carboxamide] were 33 µM, 1.1 µM and 1.1 µM.
Turning to `O=C(N[C@H]1CCCNC1)c1ccc(O)c2[nH]c(C3CC3)nc12` [Example 9, (S)-2-cyclopropyl-4-hydroxy-N-(piperidin-3-yl)-1H-benzo[d]imidazole-7-carboxamide], the concentration for half-maximal inhibition (IC50) amounted to 7.1 µM with HT-1197 cells, 1.5 µM in the experiment on T47D cells and 0.73 µM with BT-549 cells.
Taken in the same sequence, the figures for `O=C(N[C@H]1CCCNC1)c1ccc(O)c2[nH]c(-c3ccc(Br)s3)nc12` [Example 51, (S)-2-(5-bromothiophen-2-yl)-7-hydroxy-N-(piperidin-3-yl)-1H-benzo[d]imidazole-4-carboxamide] were 5.7 µM, 0.14 µM and 0.18 µM.
On the same counts, the results for `CN1CCCC(NC(=O)c2ccc(O)c3[nH]c(-c4cccs4)nc23)C1` (stereo not drawn) [Example 41, 7-Hydroxy-N-(1-methylpiperidin-3-yl)-2-(thiophen-2-yl)-1H-benzo[d]imidazole-4-carboxamide] are 24 µM, 9.8 µM and 8.1 µM.
Taken in the same sequence, the figures for `O=C(NCC1CCCCN1)c1ccc(O)c2[nH]c(C3CC3)nc12` (stereo not drawn) [Example 7, 2-Cyclopropyl-4-hydroxy-N-(piperidin-2-ylmethyl)-1H-benzo[d]imidazole-7-carboxamide] were greater than 100 µM, 11 µM and 9.5 µM.
With `O=C(NC1CCNC1)c1ccc(O)c2[nH]c(-c3cccs3)nc12` (stereo not drawn) [Example 44, 7-Hydroxy-N-(pyrrolidin-3-yl)-2-(thiophen-2-yl)-1H-benzo[d]imidazole-4-carboxamide], the results for the IC50 in the experiment with HT-1197 cells, in the experiment with T47D cells and in the experiment with BT-549 cells were greater than 100 µM, 20 µM and 15 µM, respectively.
On the same counts, the results for `O=C(NC[C@H]1CCCNC1)c1ccc(O)c2[nH]c(Cc3cccs3)nc12` [Example 60, (S)-7-hydroxy-N-(piperidin-3-ylmethyl)-2-(thiophen-2-ylmethyl)-1H-benzo[d]imidazole-4-carboxamide] are 33 µM, 42 µM and 49 µM.
Taken in the same sequence, the figures for `NC1CCCC(NC(=O)c2ccc(O)c3[nH]c(C4CC5CCC4C5)nc23)C1` (stereo not drawn) [Example 55, N-(3-Aminocyclohexyl)-2-(bicyclo[2.2.1]heptan-2-yl)-7-hydroxy-1H-benzo[d]imidazole-4-carboxamide] were 74 µM, 9.1 µM and 2.9 µM.
Turning to `O=C(NCC1CCCCN1)c1ccc(O)c2[nH]c(-c3ccccc3)nc12` (stereo not drawn) [Example 18, 4-Hydroxy-2-phenyl-N-(piperidin-2-ylmethyl)-1H-benzo[d]imidazole-7-carboxamide], the IC50 with HT-1197 cells was determined as 98 µM; in the experiment on T47D cells, 15 µM; in the experiment with BT-549 cells it was 31 µM.
On the same counts, the results for `O=C(NC1CCCNC1)c1ccc(O)c2[nH]c(C3CC3)nc12` (stereo not drawn) [Example 11, 2-cyclopropyl-4-hydroxy-N-(piperidin-3-yl)-1H-benzo[d]imidazole-7-carboxamide] are 44 µM, 3.2 µM and 1.6 µM.
On the same counts, the results for `O=C(NC1CCNCC1)c1ccc(O)c2[nH]c(C3CC3)nc12` [Example 10, 2-cyclopropyl-4-hydroxy-N-(piperidin-4-yl)-1H-benzo[d]imidazole-7-carboxamide] are greater than 100 µM, 19 µM and 20 µM.
Regarding `NC12CC3CC(C1)CC(NC(=O)c1ccc(O)c4[nH]c(C5CC6CCC5C6)nc14)(C3)C2` (stereo not drawn) [Example 53], the concentration for half-maximal inhibition (IC50) came out at 24 µM in the experiment on HT-1197 cells, 5.2 µM in the experiment with T47D cells and 4.6 µM in the experiment on BT-549 cells.
Taken in the same sequence, the figures for `O=C(NCC1CCCNC1)c1ccc(O)c2[nH]c(C3CC4CCC3C4)nc12` (stereo not drawn) [Example 48, 2-(Bicyclo[2.2.1]heptan-2-yl)-7-hydroxy-N-(piperidin-3-ylmethyl)-1H-benzo[d]imidazole-4-carboxamide] were no less than 100 µM, 49 µM and 20 µM.
Taken in the same sequence, the figures for `O=C(NCC1CCCNC1)c1ccc(O)c2[nH]c(C3CCCC3)nc12` (stereo not drawn) [Example 15, 2-Cyclopentyl-4-hydroxy-N-(piperidin-3-ylmethyl)-1H-benzo[d]imidazole-7-carboxamide] were greater than 100 µM, 21 µM and 25 µM.
As for `N[C@H]1CC[C@H](NC(=O)c2ccc(O)c3[nH]c(-c4cccs4)nc23)CC1` [Example 47, N-(4-Aminocyclohexyl)-7-hydroxy-2-(thiophen-2-yl)-1H-benzo[d]imidazole-4-carboxamide], the concentration for half-maximal inhibition (IC50) was 58 µM in the experiment on HT-1197 cells, 6.2 µM in the experiment with T47D cells and 5.3 µM in the experiment on BT-549 cells.
On the same counts, the results for `O=C(N[C@H]1CCCNC1)c1ccc(O)c2[nH]c(C3CCCC3)nc12` [Example 16, (S)-2-Cyclopentyl-4-hydroxy-N-(piperidin-3-yl)-1H-benzo[d]imidazole-7-carboxamide] are 19 µM, 2.6 µM and 0.37 µM.
Taken in the same sequence, the figures for `N[C@H]1CC[C@@H](CNC(=O)c2ccc(O)c3[nH]c(C4CC5CCC4C5)nc23)CC1` (stereo partly drawn) [Example 56, N-{[(cis)-4-Aminocyclohexyl]methyl}-2-(bicyclo[2.2.1]heptan-2-yl)-7-hydroxy-1H-benzo[d]imidazole-4-carboxamide] were 61 µM, 30 µM and 10 µM.

The values above are taken from US20110263566A1 (priority 2008, published 2011).
